Data reported in patent US20220135580A1, “HYDROXYPH[…], METHODS AND USES THEREOF” (priority 2019, published 2022).
“Also recorded” adds a separate entry of the source.

Experiments:
[1] = tested on: neutral lipids in zebrafish larvae; assay: zebrafish Nile red fat metabolism assay (lipid reducing activity); assay type: in vivo, Zebrafish (Danio rerio); details: for fluorescence intensity of Nile red: all tested concentrations (156 ng/mL to 10 μg/mL); for lipid reducing activity / Nile red staining / IC50: zebrafish larvae, exposure for 48 h; for IC50: Nile red
Protocol: FIG. 1.A: Representative images of the zebrafish Nile red fat metabolism assay. Nile red fluorescence signal indicates neutral lipids around the yolk sac and stomach/intestine. […] A solvent control (0.1% dimethyl sulfoxide, DMSO) and positive control group (50 μM resveratrol, REV) was included.
FIG. 1.B: Quantification of lipid-reducing activity in the zebrafish Nile Red fat metabolism assay after exposure for 48 h. Values are expressed as mean fluorescence intensity (MFI) relative to the DMSO group and are derived from 6 to 8 individual larvae per treatment group. The data are represented as box-whisker plots (5 to 95 percentiles). Asterisks highlight significant differences compared to the DMSO group (****p<0.0001; ***p<0.001; **p<0.01; *p<0.05).
Zebrafish (Danio rerio) has become an attractive model organism for biomedical research. In the study of complex metabolic disorders like obesity, the use of more complex in vivo model systems as small whole animal models can bring significant advantages. For drug discovery, zebrafish assays can be used complementary to rodent assays, with easier handling, high predictive validity and cost-efficiency while compatible with high-throughput screening. […] The zebrafish Nile red fat metabolism assay analyses the capacity of compounds to reduce neutral lipids in zebrafish larvae in vivo.
(§1) 13^2(S)-hydroxy-pheophytin a (hpa) is a known compound, and belongs to the photosystem II complex of the chloroplast. The second is a novel compound, 13^2(S)-hydroxy-pheofarnesin a (hfa), which is structurally related to hpa.
In an embodiment, chlorophyll a and chlorophyll b were tested for lipid reducing activity on the zebrafish Nile red fat metabolism assay.

[2] = tested on: differentiated 3T3-L1 spheroids; assay: lipolysis: free glycerol in the medium of 3T3-L1 spheroids; assay type: cell-based, murine; details: 3T3-L1 spheroids exposed over 48 h
Protocol: (§2) FIG. 2: Evaluation of lipid content (Nile red) and viability (calcein AM) in differentiated 3T3-L1 spheroids after exposure to compound 1 (hpa) and compound 2 (hfa) over 48 h. […] Statistical difference to the solvent control were analysed by One-Way ANOVA, followed by a Dunnett's multiple comparison post-test (***p-value<0.001, **p-value <0.01, *p-value <0.05). Quantification of free glycerol (lipolysis) on the medium where 3T3-L1 organoids were exposed to compound 1 (hpa) and compound 2 (hfa) over 48 h. […] Kolmogorov-Smirnov test was used to test normality of the data, followed by a Dunnett's multiple comparison post-test (***p-value <0.001, **p-value <0.01, *p-value <0.05).
(§3) In an embodiment, the bioactivity of hpa and hfa was confirmed in a further assay, using the murine pre-adipocyte cell line 3T3L1. […] In an embodiment, the activity in differentiated 3T3L1 spheroids was confirmed and analysis of lipolysis performed.

[3] = tested on: differentiated 3T3-L1 spheroids; assay: lipid content (Nile red) in differentiated 3T3-L1 spheroids; assay type: cell-based, murine; details: for lipid accumulation: 48 h exposure, spheroids after 7 d differentiation; for lipid content of the spheroids: 3T3L1 cells grown and differentiated as spheroids
Protocol: as §2, §3

[4] = tested on: differentiated 3T3-L1 spheroids; assay: viability (calcein AM) in differentiated 3T3-L1 spheroids; assay type: cell-based, murine; details: for reduction of viability of spheroids: not significant; for toxicity by calcein AM staining: 3T3L1 spheroids
Protocol: as §2, §3

zebrafish larvae = assay: general toxicity on zebrafish larvae (death, malformations); assay type: in vivo, Zebrafish (Danio rerio); details: same concentration ranges as lipid reducing activity
Description: as §1

cancer cells = details: Cheng et al., 2001; cited from earlier work

Row | Molecule | fluorescence intensity of Nile red [1] | lipid reducing activity / Nile red staining [1] | lipolytic activity / free glycerol content in the medium [2] | lipolytic activity / free glycerol content in the medium ([2]; listed as compound 1) | lipid accumulation ([3]; 7.5 μg/mL) | lipid accumulation ([3]; 15 μg/mL) | lipid accumulation ([3]; 30 μg/mL) | lipid content of the spheroids [3] | reduction of viability of spheroids ([4]; 15 μg/mL, 48 h) | reduction of viability of spheroids ([4]; 30 μg/mL, 48 h) | toxicity by calcein AM staining [4] | IC50 [1] | general toxicity (death, malformations) (zebrafish larvae) | cytotoxicity on cancer cells (cancer cells) | lipolytic activity / free glycerol content in the medium ([2]; listed as compound 2) | reduction in viability of spheroids ([4]; any concentration, 48 h)
1 | C=Cc1c(C)c2cc3nc(c4c5[n-]c(cc6nc(cc1[n-]2)C(C=O)=C6CC)c(C)c5C(=O)[C@@H]4C(=O)OC)[C@@H](CCC(=O)OC/C=C(\C)CCC[C@H](C)CCC[C@H](C)CCCC(C)C)[C@@H]3C.[Mg+2] [chlorophyll b] | did not reduce the fluorescence intensity | not present; also recorded: did not demonstrate any lipid reducing activity | – | – | – | – | – | – | – | – | – | – | – | – | – | –
2 | 13^2-(S)-hydroxy-pheophytin a [hpa] | – | show a decrease in the Nile red staining | did not alter lipolytic activities | No significant alterations | significant reduction of lipid accumulation | significant reduction of lipid accumulation | significant reduction of lipid accumulation | reduced significantly the lipid content | 20% | 20% | No toxicity was observed | 8.9 ± 0.4 µM | No general toxicity was observed | 8.8 to 22 µg/mL | – | –
3 | 13^2-(S)-hydroxy-pheofarnesin a [hfa] | – | show a decrease in the Nile red staining | did not alter lipolytic activities | – | – | – | significant reduction of lipid accumulation | reduced significantly the lipid content | – | – | No toxicity was observed | 15.5 ± 1.3 µM | No general toxicity was observed | – | No significant alterations | did not cause any reduction in viability
4 | C=Cc1c(C)c2cc3nc(c4c5[n-]c(cc6nc(cc1[n-]2)C(C)=C6CC)c(C)c5C(=O)[C@@H]4C(=O)OC)[C@@H](CCC(=O)OC/C=C(\C)CCC[C@H](C)CCC[C@H](C)CCCC(C)C)[C@@H]3C.[Mg+2] [chlorophyll a] | did not reduce the fluorescence intensity | not present; also recorded: did not demonstrate any lipid reducing activity | – | – | – | – | – | – | – | – | – | – | – | – | – | –
